Patent US11723890B2, “Methods of treatment using an mTORC1 modulator” (Navitor Pharmaceuticals, Inc., priority 2019, dated 2023)
“Also recorded” adds a separate entry of the source.

Columns and labels:
cynomolgus monkey = test: Cardiovascular study in cynomolgus monkeys; assay type: in vivo
[1] = system: N-methyl-D-aspartate (NMDA) receptor; test: Nonclinical NMDA receptor modulation / antagonist activity; conditions: nonclinical studies
Description: Compound A [(S)-2-amino-5,5-difluoro-4,4-dimethylpentanoic acid] is a novel, orally bioavailable, specific, small molecule that activates mTORC1 pathway signaling in the brain, including those centers responsible for mood.
NMDA antagonists, in particular ketamine, are associated with mental status changes that have similarity to psychotic or dissociative symptoms seen in psychiatric disorders.

[2] = Nonclinical studies, observation of seizures; assay type: in vivo
[3] = Example 1 Part A: single ascending dose plasma pharmacokinetics; assay type: in vivo, human
Protocol: The in-house period was 6 days/5 nights.
Frequent PK sampling was included in the study to evaluate single-dose PK. Part B of the study included assessments designed to assess preliminary efficacy.
Single ascending doses of compound A were assessed in healthy adult males and females in Part A of a two-part, randomized, double-blind, placebo-controlled, first-in-humans Study (see Example 1, Part A).

healthy volunteers = test: Example 4: blinded multiple ascending dose safety and tolerability study; assay type: in vivo, human; conditions: Cohort 1 (800 mg) and Cohort 2 (1600 mg) once daily for 7 days, compound A or placebo (6:2), preliminary
Protocol: Navitor Pharmaceuticals, Inc. (Navitor) is currently conducting a study to assess the safety, tolerability, and PK of multiple ascending doses of compound A (400 mg, 800 mg, 1600 mg, 2400 mg, and potentially 3000 mg) versus matched placebo in healthy volunteers. This study also includes an assessment of CSF and clinical biomarkers, as well as a cognition test.
The study is planned for 4 cohorts and 1 additional optional cohort. Up to approximately 40 healthy volunteers will be randomly assigned to double-blind treatment. In the initial 4 cohorts, eight (8) subjects will be randomized (3:1; compound A:placebo) in each of the four dosage-level cohorts (800 mg, 1600 mg, 2400 mg, and 400 mg) administered as an oral solution. Within each cohort, six subjects will be randomized to receive compound A and two subjects will be randomized to receive placebo. Each subject randomized will receive compound A or placebo once daily for 7 days. Subjects will dose in the morning and will dose each day at the same time. For cohort 3 (2400 mg), each subject will return to the unit after a minimum 5-day washout to receive an additional single dose of compound A or placebo under fed conditions in Period 2. Assessments of safety, tolerability, and PK as well as exploratory biomarker and clinical measures will occur.
Cohort 1 (800 mg) and Cohort 2 (1600 mg) have been completed. […]

## CC(C)(C[C@H](N)C(=O)O)C(F)F [Compound A, (S)-2-amino-5,5-difluoro-4,4-dimethylpentanoic acid]
Cynomolgus monkey; single oral dose ≥160 mg/kg
  cardiovascular findings at ≥160 mg/kg: decreased heart rate and body temperature
Cynomolgus monkey; single oral dose ≥500 mg/kg
  cardiovascular finding at higher dosage levels: Increased blood pressure
[1]
  NMDA receptor modulation / antagonist activity: not associated with N-methyl-D-aspartate (NMDA) receptor modulation; also recorded: did not demonstrate NMDA antagonist activity
[2]
  seizures: seizures have not been observed
[3]; 150 mg to 2400 mg
  CL/F and Vz/F estimates versus dose: increased with dose
  dose proportionality of Cmax and AUC∞: slightly less than dose-proportional
[3]; both sexes, human, healthy volunteers, single oral 150-2400 mg, range among cohorts, post dose, read-out: Median Tmax
  Tmax: 0.5 to 1.5 h
[3]; both sexes, human, healthy volunteers, single oral 150-2400 mg, range among cohorts, read-out: terminal elimination half-life
  half-life: 12.7 to 15.9 h
Healthy volunteers
  labs, vital signs or ECG: No clinically significant abnormalities were observed
  severity of AEs: mild
